In publication PMC11882969 (Nature Communications, 2025):
Where “and” joins values, the source holds several entries; their conditions need not be identical. Equal entries are not always repeated. Where two headings read alike, the source gives them in different places.

Legend:
hCB1 [1] = biological target: T1, hCB1 (Homo sapiens, UniProt P21554); assay: bioSensAll ebBRET signaling profiling, hCB1; format: cell-based; parameters: host or cells: HEK293SL cells, transient PEI transfection; conditions: for Barr2+GRK2 hCB1 response: Barr2+GRK2 biosensor; for Gi1 hCB1 / GoB hCB1: single replicate values, FigS6a
T1 sequence (P21554 whole entry): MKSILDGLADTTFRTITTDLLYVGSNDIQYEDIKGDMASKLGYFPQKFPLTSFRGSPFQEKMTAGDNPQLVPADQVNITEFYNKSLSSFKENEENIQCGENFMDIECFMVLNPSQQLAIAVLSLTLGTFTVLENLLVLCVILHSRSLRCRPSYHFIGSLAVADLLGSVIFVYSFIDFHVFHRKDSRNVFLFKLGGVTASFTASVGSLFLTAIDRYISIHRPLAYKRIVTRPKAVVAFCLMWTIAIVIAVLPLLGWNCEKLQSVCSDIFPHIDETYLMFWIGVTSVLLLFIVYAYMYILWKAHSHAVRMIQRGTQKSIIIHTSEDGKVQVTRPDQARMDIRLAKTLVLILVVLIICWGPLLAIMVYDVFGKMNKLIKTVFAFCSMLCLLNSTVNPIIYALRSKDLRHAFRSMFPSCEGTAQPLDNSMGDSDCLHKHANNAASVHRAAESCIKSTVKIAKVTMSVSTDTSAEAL

CB1 (rCB1) [2] = biological target: T2, CB1 (rCB1) (Rattus norvegicus, UniProt P20272); assay: Single-point radioligand displacement screen; format: binding
T2 sequence (P20272 whole entry): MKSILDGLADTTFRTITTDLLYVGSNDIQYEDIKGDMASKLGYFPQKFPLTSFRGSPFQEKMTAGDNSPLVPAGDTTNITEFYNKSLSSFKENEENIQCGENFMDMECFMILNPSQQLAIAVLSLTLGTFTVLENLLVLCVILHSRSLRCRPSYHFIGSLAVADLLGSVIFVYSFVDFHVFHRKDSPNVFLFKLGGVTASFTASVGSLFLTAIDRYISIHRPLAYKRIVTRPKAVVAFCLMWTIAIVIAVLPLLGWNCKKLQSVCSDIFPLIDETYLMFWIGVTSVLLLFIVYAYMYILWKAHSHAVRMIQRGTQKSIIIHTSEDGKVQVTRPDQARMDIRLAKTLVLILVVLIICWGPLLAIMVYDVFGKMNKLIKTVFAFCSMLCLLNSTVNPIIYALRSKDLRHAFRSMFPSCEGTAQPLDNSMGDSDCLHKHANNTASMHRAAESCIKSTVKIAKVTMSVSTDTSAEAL

AmpC β-lactamase = AmpC β-lactamase (Escherichia coli, UniProt P00811); format: biochemical; conditions: Log[7019], sheet FigS2d
Chain of AmpC β-lactamase (P00811 20-377): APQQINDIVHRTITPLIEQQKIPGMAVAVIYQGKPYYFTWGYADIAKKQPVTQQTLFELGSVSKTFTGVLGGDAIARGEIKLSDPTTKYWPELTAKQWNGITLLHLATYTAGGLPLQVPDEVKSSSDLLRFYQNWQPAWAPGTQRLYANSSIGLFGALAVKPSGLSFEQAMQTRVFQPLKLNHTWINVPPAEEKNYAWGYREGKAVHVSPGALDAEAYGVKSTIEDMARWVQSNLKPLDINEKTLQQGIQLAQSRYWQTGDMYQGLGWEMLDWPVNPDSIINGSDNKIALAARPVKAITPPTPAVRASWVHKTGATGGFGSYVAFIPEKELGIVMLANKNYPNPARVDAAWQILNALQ
Experimental: Enzyme inhibition assays to test for colloidal inhibition were performed at room temperature using CLARIOstar Plate Reader (BMG Labtech). Samples were prepared in 50 mM KPi buffer, pH 7.0 with final DMSO concentration at 1% (v/v). Compounds were incubated with 2 nM AmpC β-lactamase (AmpC) or Malate dehydrogenase (MDH) for 5 min. AmpC reactions were initiated by the addition of 50 μM CENTA chromogenic substrate (219475, Calbiochem). […] MDH reactions were initiated by the addition of 200 μM nicotinamide adenine dinucleotide (NADH) (54839, Sigma Aldrich) and 200 μM oxaloacetic acid (324427, Sigma Aldrich). The change in absorbance was monitored at 340 nm for 60 sec. Initial rates were divided by the DMSO control rate to determine % enzyme activity. […]. Data was analyzed using GraphPad Prism 9.1.

hCB1 [3] = biological target: T1, hCB1; assay: Lance Ultra cAMP accumulation assay, CHO cells; format: cell-based; parameters: expressed in transfected cells; conditions: replicates, sheet FigureS2a;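 note: human CB1R stably expressed in CHO cells, ligands co-incubated with forskolin at room temperature, read-out is lowering of forskolin-stimulated cAMP accumulation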
Experimental: The inhibition of forskolin-stimulated cAMP accumulation assays was carried out using PerkinElmer’s Lance Ultra cAMP kit following the manufacturer’s protocol. In brief, CHO cells stably expressing human CB1R (provided by the lab of Laura Bohn) were harvested by incubation with Versene (ThermoFisher Scientific, Waltham, MA) for 10 min, washed once with Hank’s Balanced Salt Solution, and resuspended in stimulation buffer at ~200 cells/μL density. The ligands at eight different concentrations (0.001-10,000 nM) in stimulation buffer (5 μL) containing forskolin (2 μM final concentration) were added to a 384-well plate followed by the cell suspension (5 μL; ~1000 cells/well). The plate was incubated for 30 min at room temperature. Eu-cAMP tracer (5 μL) and Ulight-anti-cAMP (5 μL) working solutions were then added to each well, and the plate was incubated at room temperature for an additional 60 min. Results were measured on a Perkin-Elmer EnVision plate reader. The EC50 values were determined by nonlinear regression analysis using Graphpad Prism 9 and are expressed as the mean of three experiments, each performed in triplicate.

CB1 (rCB1) [4] = biological target: T2, CB1 (rCB1); assay: Radioligand competition binding, [3H]-CP-55,940, rat brain membranes

## Cc1nc(CC2CC2)oc1-c1nc(Cc2cc3c(cc2Br)OCO3)no1 [‘7019]
hCB1 [1]; Log [Compound] (M) -4.22186
  Barr2+GRK2 hCB1 response: 62.2028
  Gi1 hCB1: -7.329
  GoB hCB1: -13.0099
hCB1 [1]; Log [Compound] (M) -4.63927
  Barr2+GRK2 hCB1 response: 5.727
  Gi1 hCB1: -8.042
  GoB hCB1: -13.6002
hCB1 [1]; Log [Compound] (M) -5.05788
  Barr2+GRK2 hCB1 response: -5.441
  Gi1 hCB1: -10.1639
  GoB hCB1: -11.5515
hCB1 [1]; Log [Compound] (M) -5.47381
  Barr2+GRK2 hCB1 response: -3.845
  Gi1 hCB1: -10.5282
  GoB hCB1: -15.1627
hCB1 [1]; Log [Compound] (M) -5.89285
  Barr2+GRK2 hCB1 response: 30.2955
  Gi1 hCB1: -9.467
  GoB hCB1: -15.9787
hCB1 [1]; Log [Compound] (M) -6.31878
  Barr2+GRK2 hCB1 response: 10.513
  Gi1 hCB1: -6.569
  GoB hCB1: -12.489
hCB1 [1]; Log [Compound] (M) -6.72585
  Barr2+GRK2 hCB1 response: 12.1083
  Gi1 hCB1: -4.716
  GoB hCB1: -9.694
hCB1 [1]; Log [Compound] (M) -7.14267
  Barr2+GRK2 hCB1 response: 9.875
  Gi1 hCB1: 3.012
  GoB hCB1: -8.531
hCB1 [1]; Log [Compound] (M) -7.55284
  Barr2+GRK2 hCB1 response: -7.674
  Gi1 hCB1: 0.08255
  GoB hCB1: -6.326
hCB1 [1]; Log [Compound] (M) -8
  Barr2+GRK2 hCB1 response: 3.174
  Gi1 hCB1: 2.236
  GoB hCB1: -8.913
hCB1 [1]; Log [Compound] (M) -8.22186
  Barr2+GRK2 hCB1 response: 10.513
  Gi1 hCB1: 3.4083
  GoB hCB1: -2.3673
hCB1 [1]; Log [Compound] (M) -8.39794
  Barr2+GRK2 hCB1 response: 2.217
  Gi1 hCB1: 2.078
  GoB hCB1: -8.01
hCB1 [1]; Log [Compound] (M) -8.68787
  Barr2+GRK2 hCB1 response: -30.0093
  Gi1 hCB1: 0.1776
  GoB hCB1: -4.607
hCB1 [1]; Log [Compound] (M) -9.15521
  Barr2+GRK2 hCB1 response: -44.3676
  Gi1 hCB1: -0.1708
  GoB hCB1: -5.336
hCB1 [1]; Log [Compound] (M) -9.61989
  Barr2+GRK2 hCB1 response: -29.3712
  Gi1 hCB1: 0.4151
  GoB hCB1: -6.256
hCB1 [1]; Log [Compound] (M) -10.0969
  Barr2+GRK2 hCB1 response: -17.8845
  Gi1 hCB1: -0.8202
  GoB hCB1: -5.6139
hCB1 [1]; Log [Compound] (M) -10.5529
  Barr2+GRK2 hCB1 response: -36.0717
  Gi1 hCB1: 1.635
  GoB hCB1: -5.77
hCB1 [1]; Log [Compound] (M) -11.0177
  Barr2+GRK2 hCB1 response: -47.2392
  Gi1 hCB1: 0.2092
  GoB hCB1: -3.426
hCB1 [1]; Log [Compound] (M) -11.4949
  Barr2+GRK2 hCB1 response: -38.6243
  Gi1 hCB1: -0.7251
  GoB hCB1: -5.058
hCB1 [1]; Log [Compound] (M) -11.9208
  Barr2+GRK2 hCB1 response: -22.6706
  Gi1 hCB1: -0.5034
  GoB hCB1: -3.392
hCB1 [1]; Log [Compound] (M) -12.3979
  Barr2+GRK2 hCB1 response: -32.5619
  Gi1 hCB1: 1.698
  GoB hCB1: -7.2806
hCB1 [1]; Log [Compound] (M) -12.8861
  Barr2+GRK2 hCB1 response: -24.5851
  Gi1 hCB1: 0.8586
  GoB hCB1: -4.763
hCB1 [1]; Log [Compound] (M) -13.3979
  Barr2+GRK2 hCB1 response: -2.25
hCB1 [1]; Log [Compound] (M) -13
  Gi1 hCB1: 6.94
  GoB hCB1: -5.215
hCB1 [1]; Log [Compound] (M) cell empty
  Gi1 hCB1: 3.028
  GoB hCB1: -6.482
CB1 (rCB1) [2]; 10 µM, 1 µM or 300 nM by cell colour (not visible)
  % 1H-CP-55,940 displacement (mean) from single point screen: 69.08%
CB1 (rCB1) [2]; Figure 1c source data, replicate 1
  rep1_displacement: 67.1
CB1 (rCB1) [2]; Figure 1c source data, replicate 2
  rep2_displacement: 70.3
CB1 (rCB1) [2]; Figure 1c source data, replicate 3
  rep3_displacement: 69.9
AmpC β-lactamase; uM 0
  AmpC inhibition: 0
AmpC β-lactamase; uM 1
  AmpC inhibition: 0
AmpC β-lactamase; uM 1.49996
  AmpC inhibition: 27.6
AmpC β-lactamase; uM 2
  AmpC inhibition: 55.1
AmpC β-lactamase; uM -0.500011
  AmpC inhibition: 0
AmpC β-lactamase; uM -1
  AmpC inhibition: 0
hCB1 [3]; compound 0.01 nM
  cAMP assay signal, concentration-response point: 0.00339 and 0.00303 and 0.003953
hCB1 [3]; compound 0.1 nM
  cAMP assay signal, concentration-response point: 0.003311 (2×) and 0.004082
hCB1 [3]; compound 1 nM
  cAMP assay signal, concentration-response point: 0.003289 and 0.004926 and 0.003401
hCB1 [3]; compound 10 nM
  cAMP assay signal, concentration-response point: 0.003247 and 0.002457 and 0.002907
hCB1 [3]; compound 100 nM
  cAMP assay signal, concentration-response point: 0.002793 and 0.0025 and 0.003861
hCB1 [3]; compound 1000 nM
  cAMP assay signal, concentration-response point: 0.003175 and 0.003571 and 0.003759
hCB1 [3]; compound 10000 nM
  cAMP assay signal, concentration-response point: 0.00431 and 0.005952* and 0.003571
hCB1 [3]; compound 100000 nM
  cAMP assay signal, concentration-response point: 0.0007716 and 0.001742 and 0.0006817
CB1 (rCB1) [4]; log[drug] -3.643
  radioligand binding remaining, competition curve (Figure2e), replicate values: 14.0395 and 10.3537 and 12.7126
CB1 (rCB1) [4]; log[drug] -4.35655
  radioligand binding remaining, competition curve (Figure2e), replicate values: 11.9492 and 13.8721 and 12.5783
CB1 (rCB1) [4]; log[drug] -5.07
  radioligand binding remaining, competition curve (Figure2e), replicate values: 46.5819 and 49.8809 and 53.387
CB1 (rCB1) [4]; log[drug] -5.783
  radioligand binding remaining, competition curve (Figure2e), replicate values: 89.8305 and 82.4446 and 90.6893
CB1 (rCB1) [4]; log[drug] -6.496
  radioligand binding remaining, competition curve (Figure2e), replicate values: 105.085 and 92.9907 and 91.4056
CB1 (rCB1) [4]; log[drug] -7.21
  radioligand binding remaining, competition curve (Figure2e), replicate values: 98.1356 and 103.28 and 99.3733
CB1 (rCB1) [4]; log[drug] -7.923
  radioligand binding remaining, competition curve (Figure2e), replicate values: 89.0395 and 99.5785 and 100.597
CB1 (rCB1) [4]; log[drug] -8.636
  radioligand binding remaining, competition curve (Figure2e), replicate values: 97.4011 and 107.312 and 98.9257
CB1 (rCB1) [4]; rCB1
  pKi [95% CI]: 5.39 [5.27 –5.52]
